System: mouse hippocampal slices
Test: Low Mg2+-induced epileptiform bursting activity (evoked and spontaneous) in hippocampal slices
Format: cell-based
Settings: Mg2+-free aCSF; for frequency of spontaneous clustered bursts / frequency of spontaneous clustered bursts relative to control: bath perfusion
Procedure: Limbic seizures (Avoli et al., 2002) are modeled by removing Mg^2+ from artificial cerebral spinal fluid (aCSF) in slices of hippocampal-entorhinal cortex, which triggers interictal-like bursting activity, or spontaneous ictal-like events (Wong et al., 2001; Anderson et al., 1986). In the presence of normal Mg^2+ (1.5 mM), stimulation of Schaffer collaterals induces single population spike or EPSP in the CA1 region of the hippocampus. […] Perfusion with Mg^2+-free aCSF for about 30 min evoked synchronous burst firing with the same stimulation intensity. In about, 30% of the slices, spontaneous clustered bursts developed in the absence of electrical stimulation. Bath perfusion of amiloride or PcTX1 for 10 min reduced the amplitude and frequency of evoked bursting activity (FIGS. 5A and 5B). Amiloride (100 μM) reduced the amplitude of the first and the second population spikes (from 1.2±0.2 mV to 0.5±0.2 mV and 0.6±0.03 mV to 0.2±0.05 mV, respectively (n=9: p<0.01, FIGS. 5A and 5B), and the number of population spikes (from 4.7±0.6 to 3.3±0.8, n=9, p<0.05)). Similarly, PcTX1 (200 ng/mL) attenuated the amplitude of the population spike (from 2.1±0.3 to 1.6±0.2 mV, n=9, p<0.05) and the number of spikes (from 4.2±0.6 to 3.0±0.6, p<0.05).
Preparation of hippocampal slices and brain slice recording. Hippocampal slices were obtained from 8- to 10-week-old mice. The protocol for brain-slice recording was approved by the Institutional Animal Care and Use Committee of Legacy Research. Animals were deeply anesthetized with isoflurane and decapitated. Brains were quickly removed and placed in ice-cold solution that contained: 125 mM sucrose, 2.5 mM KCl, 26 mM NaHCO3, 1.25 mM NaHPO4, 6.0 mM […], 0.5 mM CaCl2, and 10 mM glucose, and was saturated with 95% O2 and 5% CO2 (pH 7.4). Hippocamnpal slices were cut in 400 μm thickness in transverse plane with a vibratome (Leica VT 1000S) and placed in a slice holding chamber (BSC-PC Prechamber, Warner Instrument) and incubated in normal artificial cerebral spinal fluid (aCSF) that contained: 125 mM NaCl, 2.5 mM KCl, 26 mM NaHCO3, 1.25 mM […], 1.0 mM MgSO4, 2.0 mM CaCl2, and 10 mM glucose, and was saturated with 95% O2 and 5% CO2 (pH 7.4).
Following ˜60 min of incubation at room temperature, individual slices were transferred to a submerged slice chamber with a volume of 0.5 mL (Warner Instruments, Hamden, Conn.) and perfused with oxygenated aCSF (35° C.) at a rate of 3-4 mL/min. Recording electrodes were pulled from borosilicate glass and filled with aCSF. The population spike and the field excitatory postsynaptic potentials (fEPSP) were recorded in stratum pyramidale and striatum radiatum of hippocampal CA1 region, by stimulating Schaffer Collaterals.
For low Mg^2+ induced epileptic burst activity, Mg^2+-free aCSF was perfused to the slices for ˜30 min. For stimulus-train induced bursting discharges (STIB), each stimulation train consisted of 120 pulses at 60 Hz and each pulse was 100 μsec in duration (Stasheff et al., 1985). A 10-minute interval of non-stimulation was provided between successive trains of high frequency stimulation. Stimulation electrodes were located in striatum radiatum between CA1 and CA3 region. The population spikes were recorded from striatum pyramidale of the CA3 region.
Pharmacological and electrical bursting models. To induce epileptic burst discharges, Mg^2+-free aCSF was applied. Mg^2+-free aCSF was obtained by simply omitting MgSO4 from aCSF.

[1] = 100 μM amiloride, bath perfusion 10 min, evoked
[2] = PcTX1 200 ng/mL, bath perfusion 10 min, evoked

Molecule | amplitude of the first population spike [1] | amplitude of the second population spike [1] | number of population spikes [1] | frequency of spontaneous clustered bursts | frequency of spontaneous clustered bursts relative to control | amplitude of the population spike [2] | number of spikes [2]
NC(N)=NC(=O)c1nc(Cl)c(N)nc1N [amiloride, 3,5-diamino-6-chloro-N(diaminomethylidene)pyrazine-2-carboxamide] | 0.5±0.2 mV | 0.2±0.05 mV | 3.3±0.8 | 26.0 ± 5.8 min⁻¹ | 0.84±0.05 of control |  | 
Psalmotoxin 1 [PcTX1] |  |  |  | 59.9 ± 11.3 min⁻¹ | 0.68±0.07 of control | 1.6±0.2 mV | 3.0±0.6
